What all share (assay type): cell-based
One experiment concerns the target T1, hPPARgamma (Homo sapiens, UniProt P37231).
T1 construct: Gal4-hPPARγ(LBD); Gal4 (fusion partner); expressed in transfected cells; host or cells: COS-7 (monkey kidney)
T1 sequence (P37231 238-503 limits assumed): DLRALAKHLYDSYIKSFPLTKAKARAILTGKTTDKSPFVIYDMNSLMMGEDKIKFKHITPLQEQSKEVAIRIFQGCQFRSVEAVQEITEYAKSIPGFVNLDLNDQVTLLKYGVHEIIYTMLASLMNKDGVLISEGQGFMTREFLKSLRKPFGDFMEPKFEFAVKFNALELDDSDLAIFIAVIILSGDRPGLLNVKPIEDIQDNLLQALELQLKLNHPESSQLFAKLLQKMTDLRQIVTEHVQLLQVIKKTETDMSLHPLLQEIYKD
The experiment can be described thus: Gal4-hPPARgamma transactivation assay in COS-7 cells (luciferase). The note with it: for EC50: Gal4-hPPARγ(LBD) transactivation; for Emax: COS-7, maximal relative activation vs reference, read-out: Gal4-hPPARγ(LBD) TOP (% ref); for Gal4-hPPARγ(LBD) TOP (% ref): maximal relative activation vs reference. The protocol:
(§1) Monkey kidney COS-7 cells were maintained in standard culture conditions (Dulbecco's modified Eagle's minimal medium: DMEM) supplemented with 10% fetal calf serum, 1% sodium pyruvate, 1% essential amino acids and 1% antibiotics at 37° C. in a humidified atmosphere of 5% C02 and 95% air. The medium was changed every 2 days. All tested compounds were dissolved in DMSO. Cells were transfected using 2 μl JetPEI™ (Polyplus transfection)/μg of DNA. Briefly, 40 μg of DNA was transfected in a 225 cm^2 culture flask of adherent COS-7 cells (respecting the 1/50 ratio between the Gal4(RE)_TkpGL3 plasmid and the plasmid coding the nuclear receptor of interest (pGal4-hPPARalpha, pGal4-hPPARgamma, pGal4-hPPARdelta, pGal4-mPPARalpha, pGal4-mPPARgamma and pGal4-mPPARdelta) or of the pGal4phi plasmid (negative control). Cells were enzymatically detached and seeded in 384 well plates at the density of 20,000 cells/well and then incubated for 4 hours at 37° C. The activation was automatically performed, by using the Genesis Freedom 200™ (Tecan), in fresh medium supplemented with 2% of synthetic serum, free of lipids (Ultroser™, Biosepra) supplemented with the tested compounds (compound of interest or reference molecules) or vehicle (DMSO 0.1%). The luciferase activity was measured with the Steady-Glo Luciferase Assay System (Promega, Madison, Wis.). All transactivation experiments were performed at least 2 times. Activation curves were realized using SigmaPlot® (version 7.0 from SPSS Inc.) software and took into account all the experimental points. SimgaPlot® was also used to fit the standard curves and then determine the specific EC50 values, maximum effect versus reference molecules and Hill slope. The Emax effect of each new ligand is represented as the ratio of the maximal induction (plateau) obtained with the new ligand and the induction obtained with the corresponding reference compound. The reference compounds for PPARalpha, PPARgamma and PPARdelta were fenofibrate (100 μM), rosiglitazone (10 μM) and GW501516 (1 μM).

The target in another experiment is T2, hPPARdelta (Homo sapiens, UniProt Q03181).
T2 construct: Gal4-hPPARδ(LBD); Gal4 (fusion partner); expressed in transfected cells; host or cells: COS-7 (monkey kidney)
T2 sequence (Q03181 211-439 limits assumed): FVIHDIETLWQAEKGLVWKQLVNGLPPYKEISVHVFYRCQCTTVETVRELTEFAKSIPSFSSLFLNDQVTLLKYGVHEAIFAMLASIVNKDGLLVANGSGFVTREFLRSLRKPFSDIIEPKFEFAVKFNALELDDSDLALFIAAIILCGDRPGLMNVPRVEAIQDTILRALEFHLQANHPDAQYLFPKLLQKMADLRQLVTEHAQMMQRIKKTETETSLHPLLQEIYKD
The experiment can be described thus: Gal4-hPPARdelta transactivation assay in COS-7 cells (luciferase). The note with it: for EC50: Gal4-hPPARδ(LBD) transactivation; for Emax: COS-7, maximal relative activation vs reference, read-out: Gal4-hPPARδ(LBD) TOP (% ref); for Gal4-hPPARδ(LBD) TOP (% ref): maximal relative activation vs reference. On the procedure: as §1

A further experiment concerns the target T3, hPPARalpha (Homo sapiens, UniProt Q07869).
T3 construct: Gal4-hPPARα(LBD); Gal4 (fusion partner); expressed in transfected cells; host or cells: COS-7 (monkey kidney)
T3 sequence (Q07869 239-466 limits assumed): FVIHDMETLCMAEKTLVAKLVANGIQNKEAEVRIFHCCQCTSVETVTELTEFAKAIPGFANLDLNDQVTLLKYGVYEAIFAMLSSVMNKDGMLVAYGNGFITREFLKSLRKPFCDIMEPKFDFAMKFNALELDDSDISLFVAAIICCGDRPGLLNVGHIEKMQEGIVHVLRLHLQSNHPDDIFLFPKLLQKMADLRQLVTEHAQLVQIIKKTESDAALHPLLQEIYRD
The experiment can be described thus: Gal4-hPPARalpha transactivation assay in COS-7 cells (luciferase). The note with it: for EC50: Gal4-hPPARα(LBD) transactivation; for Emax: COS-7, maximal relative activation vs reference, read-out: Gal4-hPPARα(LBD) TOP (% ref). The protocol: as §1

What is called EC50 is the concentration needed to bring the measured effect to its halfway point. A higher EC50 goes with a need for much substance. As to `Cc1cc(C2CC2C(OCc2ccccc2)c2ccc(OC(F)(F)F)cc2)cc(C)c1OC(C)(C)C(=O)O` (single isomer, unassigned) [Cpd 11-2, 2-(4-(2-(benzyloxy(4-(trifluoromethoxy)phenyl)methyl)cyclopropyl)-2,6-dimethylphenoxy)-2-methylpropanoic acid], the EC50 on hPPARgamma is 0.023 µM; on hPPARdelta, 0.122 µM; on hPPARalpha, 0.1 µM.

As for `COC(c1ccc(C(F)(F)F)cc1F)C1CC1c1cc(C)c(OC(C)(C)C(=O)O)c(C)c1` (single isomer, unassigned) [Cpd 12-1, 2-(4-(2-(methoxy(2-fluoro-4-(trifluoromethyl)phenyl)methyl)cyclopropyl)-2,6-dimethylphenoxy)-2-methylpropanoic acid], the results for the Emax at hPPARgamma, at hPPARdelta and on hPPARalpha were 71%, 89% and 47%, respectively. The figures for the EC50 on hPPARgamma, on hPPARdelta and at hPPARalpha were 0.012 µM, 0.007 µM and 0.053 µM, respectively.

Take `COC(c1ccc(C(F)(F)F)cc1F)C1CC1c1cc(C)c(OC(C)(C)C(=O)O)c(C)c1` (single isomer, unassigned) [Cpd 12-2, 2-(4-(2-(methoxy(2-fluoro-4-(trifluoromethyl)phenyl)methyl)cyclopropyl)-2,6-dimethylphenoxy)-2-methylpropanoic acid]: the EC50 at hPPARgamma was found to be 0.003 µM; at hPPARdelta, 0.013 µM; on hPPARalpha it was 0.09 µM.

`COC(c1ccccc1OC(F)(F)F)C1CC1c1cc(C)c(OC(C)(C)C(=O)O)c(C)c1` (single isomer, unassigned) [Cpd 13-1, 2-(4-(2-(methoxy(2-(trifluoromethyloxy)phenyl)methyl)cyclopropyl)-2,6-dimethylphenoxy)-2-methylpropanoic acid]: the Emax is 72% at hPPARgamma, 59% on hPPARdelta and 26% on hPPARalpha. The EC50 came out at 0.072 µM on hPPARgamma, 0.328 µM on hPPARdelta and 0.652 µM on hPPARalpha.

`COC(c1ccccc1OC(F)(F)F)C1CC1c1cc(C)c(OC(C)(C)C(=O)O)c(C)c1` (single isomer, unassigned) [Cpd 13-2, 2-(4-(2-(methoxy(2-(trifluoromethyloxy)phenyl)methyl)cyclopropyl)-2,6-dimethylphenoxy)-2-methylpropanoic acid]: the EC50 came out at 0.009 µM at hPPARgamma, 0.214 µM at hPPARdelta and 0.623 µM on hPPARalpha.

`COC(c1ccc(OC(F)(F)F)cc1)C1CC1c1cc(C)c(OC(C)(C)C(=O)O)c(C)c1` (single isomer, unassigned) [Cpd 14-1, 2-(4-(2-(methoxy(4-(trifluoromethoxy)phenyl)methyl)cyclopropyl)-2,6-dimethylphenoxy)-2-methylpropanoic acid]: the EC50 came to 0.025 µM on hPPARgamma, 0.007 µM on hPPARdelta and 0.032 µM on hPPARalpha. For the same compound, the Emax on hPPARalpha came to 60%.

With `COC(c1ccc(OC(F)(F)F)cc1)C1CC1c1cc(C)c(OC(C)(C)C(=O)O)c(C)c1` (single isomer, unassigned) [Cpd 14-1-1, 2-(4-(2-(methoxy(4-(trifluoromethoxy)phenyl)methyl)cyclopropyl)-2,6-dimethylphenoxy)-2-methylpropanoic acid], the EC50 was found to be 0.081 µM at hPPARgamma, 0.027 µM at hPPARdelta and 0.211 µM on hPPARalpha. For the same compound, the “Gal4-hPPARγ(LBD) TOP (% ref)” value on hPPARgamma (listed as cpd 14-1-1) was determined as 78 % ref. For the same compound, the “Gal4-hPPARδ(LBD) TOP (% ref)” value on hPPARdelta (listed as cpd 14-1-1) is 67 % ref. Besides, the “Gal4-hPPARα(LBD) TOP (% ref)” value at hPPARalpha (maximal relative activation vs reference, listed as cpd 14-1-1) is given as 43 % ref.

As to `COC(c1ccc(OC(F)(F)F)cc1)C1CC1c1ccc(OC(C)(C)C(=O)O)c(C(C)C)c1` (single isomer, unassigned) [Cpd 15-1, 2-(2-isopropyl-4-(2-(methoxy(4-(trifluoromethoxy)phenyl)methyl)cyclopropyl)phenoxy)-2-methylpropanoic acid], the Emax worked out at 66% at hPPARgamma, 92% on hPPARdelta and 24% on hPPARalpha. The figures for the EC50 at hPPARgamma, on hPPARdelta and on hPPARalpha were 0.066 µM, 0.105 µM and 0.449 µM, respectively.

For the compound `COC(c1ccc(OC(F)(F)F)cc1)C1CC1c1ccc(OC(C)(C)C(=O)O)c(C(C)C)c1` (single isomer, unassigned) [Cpd 15-2, 2-(2-isopropyl-4-(2-(methoxy(4-(trifluoromethoxy)phenyl)methyl)cyclopropyl)phenoxy)-2-methylpropanoic acid], the EC50 worked out at 0.046 µM on hPPARgamma, 0.123 µM on hPPARdelta and 0.145 µM on hPPARalpha.

As to `COC(c1ccc(C(F)(F)F)cc1C(F)(F)F)C1CC1c1cc(C)c(OC(C)(C)C(=O)O)c(C)c1` (single isomer, unassigned) [Cpd 16-1, 2-(4-(2-((2,4-bis(trifluoromethyl)phenyl)(methoxy)methyl)cyclopropyl)-2,6-dimethylphenoxy)-2-methylpropanoic acid], the Emax stood at 80% on hPPARgamma, 60% at hPPARdelta and 40% on hPPARalpha. In addition, the EC50 on hPPARgamma was found to be 0.014 µM; at hPPARdelta, 0.044 µM; at hPPARalpha, 0.108 µM.

As for `COC(c1ccc(C(F)(F)F)cc1C(F)(F)F)C1CC1c1cc(C)c(OC(C)(C)C(=O)O)c(C)c1` (single isomer, unassigned) [Cpd 16-2, 2-(4-(2-((2,4-bis(trifluoromethyl)phenyl)(methoxy)methyl)cyclopropyl)-2,6-dimethylphenoxy)-2-methylpropanoic acid], the EC50 is 0.002 µM at hPPARgamma, 0.012 µM on hPPARdelta and 0.05 µM at hPPARalpha.

Consider `COC(c1ccc(OC(F)(F)F)cc1)C1CC1c1cc(C)c(OC(C)(C)C(=O)O)c(C)c1` (centres unmarked) [Cpd 14-2-1, 2-(4-(2-(methoxy(4-(trifluoromethoxy)phenyl)methyl)cyclopropyl)-2,6-dimethylphenoxy)-2-methylpropanoic acid], for which the Emax turned out to be 90% on hPPARgamma and 44% on hPPARalpha. Further, the EC50 at hPPARgamma came out at 0.016 µM; on hPPARdelta (listed as cpd 14-2-1), 0.019 µM; on hPPARalpha (listed as cpd 14-2-1), 0.05 µM. Moreover, the “Gal4-hPPARδ(LBD) TOP (% ref)” value at hPPARdelta (listed as cpd 14-2-1) is given as 78 % ref.

Take `COC(c1ccc(OC(F)(F)F)cc1)C1CC1c1cc(C)c(OC(C)(C)C(=O)O)c(C)c1` (centres unmarked) [Cpd 14-2-2, 2-(4-(2-(methoxy(4-(trifluoromethoxy)phenyl)methyl)cyclopropyl)-2,6-dimethylphenoxy)-2-methylpropanoic acid]: the “Gal4-hPPARγ(LBD) TOP (% ref)” value at hPPARgamma (listed as cpd 14-2-2) amounted to 72 % ref. On hPPARdelta (listed as cpd 14-2-2), the response was half-maximal at 0.059 µM (EC50) and the “Gal4-hPPARδ(LBD) TOP (% ref)” value was 57 % ref. Moreover, the EC50 at hPPARalpha (listed as cpd 14-2-2) came to 0.017 µM.

For the origin of these results see US9115073B2, “1,3-diphenylpropane derivatives, preparations and uses thereof” (GENFIT, priority 2011, dated 2015).
